From patent publication US6479487B1, “6, 9-disubstituted 2-[trans-(4-aminocyclohexyl)amino] purines” (Aventis Pharmaceuticals Inc., priority 1998, dated 2002)
Values joined by “and” are separate entries in the source; they are usually repeats but may differ in a detail not shown here. Equal entries are not always repeated. Structures can show the parent of a compound that is named as a salt. Where two headings read alike, the source gives them in different places.

Assays:
cdk2/cyclin E = target: T1, cdk2/cyclin E (Homo sapiens, UniProt P24941); experiment: Cyclin-Dependent Kinase 2 Assay (cdk2/cyclin E, GST-Rb substrate); format: biochemical; conditions: recombinant cdk2/cyclin E, 10 μM ATP, 30 min at 30° C., several values in a cell = separate determinations, read-out: CDK-2 Inhibition IC50
T1 construct: made in house; host or cells: insect cells (baculovirus co-infection)
Method: Substrate: GST-Rb as described above for cdk4/cyclin D1
Assay conditions for cdk2/cyclin E were identical to those for cdk4/cyclin D1 including the substrate. The concentration of recombinant cdk2/cyclin E in the assay was 0.1 μg per 100 μl assay. Incubation was for 30 min at 30° C.

A549 = experiment: In vitro tumor cell proliferation, A549; format: cell-based, human; conditions: many values given with an undefined *, read-out: In vitro Tumor Cell Proliferation (IC50, μM) Lung A549
Method: (§1) The proliferation of tumor cells was measured using a sulforhodamine B assay as described in Skehan, P., et al., J. Natl. Cancer Inst. […] Tumor cells were harvested with trypsin-EDTA, cells that excluded trypan blue were counted, added to 96-well plates and incubated overnight at 37° C. Drug was added to the wells following dilution in culture medium. Three days later, the medium was removed and replenished with medium containing fresh drug and incubated an additional 4 days. The cells were then fixed with 0.1 ml 10% trichloroacetic acid for 60 min at 4° C. The plates were rinsed five times with tap water, air-dried and stained for 30 min with 0.4% sulforhodamine B in 1% acetic acid and air-dried.
(§2) Alternatively, the CyQUANT cell proliferation assay was used to quantitate cell proliferation.
(§3) Alternatively, the CyQUANT cell proliferation assay was used to quantify tumor cell proliferation. Tumor cells were harvested with trypsin-EDTA, cells that excluded trypan blue were counted, added to 96-well plates and incubated overnight at 37° C. Drug was added to the wells following dilution in culture medium. Three days later the medium was removed and the plates frozen at −80° C. for at least 30 minutes.

MDA-MB-435 = experiment: In vitro tumor cell proliferation, MDA-MB-435; format: cell-based; conditions: values given with an undefined *, read-out: In vitro Tumor Cell Proliferation (IC50, μM) Breast MDA-MB-435
Method: as §1, §2, §3

HT-29 = experiment: In vitro tumor cell proliferation, HT-29; format: cell-based, human; conditions: many values given with an undefined *, read-out: In vitro Tumor Cell Proliferation (IC50, μM) Colon HT-29
Method: as §1, §2, §3
HT-29 is a human colon adenocarcinoma, moderately well-differentiated grade II (HTB 38);

cdk4/cyclin D1 = target: T2, cdk4/cyclin D1 (Homo sapiens, UniProt P11802); experiment: Cyclin-dependent Kinase 4 Assay (cdk4/cyclin D1, GST-Rb substrate); format: biochemical; conditions: cdk4/cyclin D1 insect cell lysate, 10 μM ATP, 30 min at 37° C., several values = separate determinations, read-out: CDK4 Inhibition IC50
T2 construct: made in house; host or cells: Sf9 insect cells (Bac-to-Bac baculovirus, pFastBac)
Method: The IC50 values for cdk4 inhibition were by the following method:
The transformed bacteria were grown overnight to saturation, then diluted in YT broth and incubated at 37° C. for 2 h. The protein was induced by incubation with 0.1 mM isopropylthioglycoside for 3 h. Following sedimentation by centrifugation, the cells were lysed by sonication in STE buffer ([…] NaCl, 10 mM Tris, pH 8.0, 1 mM EDTA) containing 10% sarkosyl. Particulate matter was removed by centrifugation and the lysate was incubated with glutathione-Sepharose at 4° C. The beads were washed with kinase buffer and then quantitation of Coomassie blue-stained proteins separated by SDS-PAGE was performed using a protein standard of known concentration.
The cDNA for human cyclin D1 was cloned by RT PCR using […] from MCF-7 cells. […] Bacmid DNA was used to transfect Sf9 insect cells to produce recombinant virus. Following plaque purification of the virus, the viral preparations were amplified until high titer stocks were acheived.
Lysates were prepared by lysis of Sf9 cells coinfected with cdk4 and cyclin D1 in 50 mM HEPES, pH 7.5, 10 mM MgCl2, 1 mM DTT, 0.1 mM phenylmethylsulfonyl fluoride, 5 μg/ml aprotinin, and 5 μg/ml leupeptin using a PARR bomb under 500 p.s.i nitrogen pressure for 5 min at 4° C. Insoluble material was sedimented at 10,000×g for 20 min at 4° C. Glycerol was added to the supernatant to 10% and stored at −80° C. in aliquots.
Pre-wet Millipore Multiscreen 96-well filter plates (0.65 μm Durapore filters) with 200 μl kinase buffer (50 mM HEPES, pH 7.5, 10 mM MgCl2, 1 mM EGTA). GST-Rb (0.5 μg) bound to glutathione-Sepharose beads is added in 50 μl per well and the solution removed by application of vacuum. […] Add 0.1 μg cdk4/cyclin D1 (insect cell lysate) to initiate assay. Incubate 30 min at 37° C. Terminate reaction by filtration on Millipore Vacuum Manifold. Wash four times with TNEN (20 mM Tris, pH 8.0, 100 mM Na Cl, 1 mM EDTA, 0.5% nonidet P-40). After drying the plates at room temperature, the filter plates were placed in adapter plates (Packard) and 40 μl of Microscint-O® (Packard) was added to each well. Top Seal A film was used to cover the plates before counting in a Top Count Scintillation Counter.

PC-3 = experiment: In vitro tumor cell proliferation, PC-3; format: cell-based, human; conditions: many values given with an undefined *, read-out: In vitro Tumor Cell Proliferation (IC50, μM) Prostate PC-3
Method: as §1, §2, §3

Colo-205 = experiment: In vitro tumor cell proliferation, Colo-205; format: cell-based; conditions: values given with an undefined *, read-out: In vitro Tumor Cell Proliferation (IC50, μM) Colon Colo-205
Method: as §1, §2, §3

DMS-114 = experiment: In vitro tumor cell proliferation, DMS-114; format: cell-based, human; conditions: many values given with an undefined *, read-out: In vitro Tumor Cell Proliferation (IC50, μM) Lung DMS-114
Method: DMS-1 14: human small cell lung carcinoma;
as §1, §2, §3

DU145 = experiment: In vitro tumor cell proliferation, DU145; format: cell-based, human; conditions: many values given with an undefined *, read-out: In vitro Tumor Cell Proliferation (IC50, μM) Prostate DU145
Method: as §1, §2, §3

MDA-MB-231 = experiment: In vitro tumor cell proliferation, MDA-MB-231; format: cell-based, human; conditions: sulforhodamine B or CyQUANT assay, many values given with an undefined *, read-out: In vitro Tumor Cell Proliferation (IC50, μM) Breast MDA-MB-231
Method: as §1, §2, §3
MDA-MB-23 1 is a human breast adenocarcinoma, hormone-independent (HTB 26);

[1] = Homo sapiens, MDA-MB-435, MDA-MB-435
[2] = Homo sapiens, COLO 205, Colo-205
[3] = Homo sapiens, MDA-MB-231, MDA-MB-231

T2 sequence (P11802 whole entry): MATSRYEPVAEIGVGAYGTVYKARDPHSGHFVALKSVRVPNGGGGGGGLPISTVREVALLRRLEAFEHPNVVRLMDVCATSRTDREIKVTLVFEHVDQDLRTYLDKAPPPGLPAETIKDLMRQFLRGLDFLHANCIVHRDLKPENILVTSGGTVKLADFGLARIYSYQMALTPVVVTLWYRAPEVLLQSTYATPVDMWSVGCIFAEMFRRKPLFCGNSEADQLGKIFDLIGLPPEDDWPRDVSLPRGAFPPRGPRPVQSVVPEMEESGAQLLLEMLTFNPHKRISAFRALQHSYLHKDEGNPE
T2 sequence (P24385 whole entry partner): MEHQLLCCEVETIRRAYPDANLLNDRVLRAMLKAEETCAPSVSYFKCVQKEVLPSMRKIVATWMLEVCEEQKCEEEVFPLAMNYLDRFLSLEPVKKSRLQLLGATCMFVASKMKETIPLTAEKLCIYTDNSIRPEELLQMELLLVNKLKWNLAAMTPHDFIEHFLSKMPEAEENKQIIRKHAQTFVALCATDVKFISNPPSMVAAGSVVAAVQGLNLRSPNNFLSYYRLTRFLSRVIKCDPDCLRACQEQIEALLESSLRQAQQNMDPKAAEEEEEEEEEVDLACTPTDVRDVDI

Row | IC50 (cdk2/cyclin E) | IC50 (A549; Homo sapiens, A549, A549) [µM] | IC50 (MDA-MB-435; [1]) [µM] | IC50 (HT-29; HT-29, dihydrochloride) | IC50 (HT-29; Homo sapiens, HT-29, HT-29) [µM] | IC50 (cdk4/cyclin D1) | IC50 (PC-3; Homo sapiens, PC-3, PC-3) [µM] | IC50 (Colo-205; [2]) [µM] | IC50 (DMS-114; DMS-114, dihydrochloride) [µM] | IC50 (DMS-114; Homo sapiens, DMS-114, DMS-114) [µM] | IC50 (DU145; Homo sapiens, DU-145, DU145) [µM] | IC50 (MDA-MB-231; [3]) [µM] | SMILES | further results
1 | 120 nM and 100 nM | 1.7 | 8 | 2.5 µM and 4.1 µM | 2.4 | 1300 nM and 1000 nM | – | – | – | – | – | – | N[C@H]1CC[C@H](Nc2nc(NNc3ccccc3Cl)c3ncn(C4CCCC4)c3n2)CC1 [Example 2, 2-[Trans-(4-aminocyclohexyl)amino]-6-(2-chlorophenylhydrazino)-9-cyclopentylpurine dihydrochloride] | IC50 (A549; A549, dihydrochloride): 2.2 µM and 1.8 µM; IC50 (MDA-MB-435; MDA-MB-435, dihydrochloride): 8.2 µM
2 | 400 nM | 1.6 | 3.1 | – | 2.4 | 100 nM | 2.3 | – | – | 2.4 | 1.9 | 2.1 | N[C@H]1CC[C@H](Nc2nc(NCCNc3ccccc3)c3ncn(C4CCCC4)c3n2)CC1 [Example 31, 2-[Trans-(4-aminocyclohexyl)amino]-6-[2-(phenylamino~ethylamino]-9-cyclopentylpurinetrihydrochloride] | IC50 (A549; A549, trihydrochloride): 2.1 µM; IC50 (MDA-MB-231; MDA-MB-231, trihydrochloride): 2.4 µM; IC50 (MDA-MB-435; MDA-MB-435, trihydrochloride): 2.6 µM; IC50 (PC-3; PC-3, trihydrochloride): 1.9 µM; IC50 (DMS-114; DMS-114, trihydrochloride): 1.8 µM; IC50 (HT-29; HT-29, trihydrochloride): 2.5 µM; IC50 (DU145; DU145, trihydrochloride): 1.8 µM

Further lines, the compound ahead of its results:

Row | SMILES | IC50 (cdk2/cyclin E) | IC50 (A549; Homo sapiens, A549, A549) [µM] | IC50 (MDA-MB-435; [1]) [µM] | IC50 (HT-29; HT-29, dihydrochloride) | IC50 (HT-29; Homo sapiens, HT-29, HT-29) [µM] | IC50 (cdk4/cyclin D1) | IC50 (PC-3; Homo sapiens, PC-3, PC-3) [µM] | IC50 (Colo-205; [2]) [µM] | IC50 (DMS-114; DMS-114, dihydrochloride) [µM] | IC50 (DMS-114; Homo sapiens, DMS-114, DMS-114) [µM] | IC50 (DU145; Homo sapiens, DU-145, DU145) [µM] | IC50 (MDA-MB-231; [3]) [µM] | further results
3 | N[C@H]1CC[C@H](Nc2nc(NCC3CCC(CO)CC3)c3ncn(C4CCCC4)c3n2)CC1 (stereo partly drawn) [Example 10, 2-[Trans-(4-aminocyclohexyl)amino]-6-[4-(hydroxymethyl)cyclohexanemethylamino]-9-cyclopentylpurine dihydrochloride] | 16 nM and 13 nM | 1.3 | – | 1.7 µM | 1.6 | 1600 nM | 1.1 | 1.3 | 1.4 | 1.5 | 1.3 | – | IC50 (A549; A549, dihydrochloride): 2.6 µM; IC50 (PC-3; PC-3, dihydrochloride): 1 µM; IC50 (Colo-205; Colo-205, dihydrochloride): 2.6 µM; IC50 (DU145; DU145, dihydrochloride): 2.6 µM
4 | COc1ccc(CCNc2nc(N[C@H]3CC[C@H](N)CC3)nc3c2ncn3C2CCCC2)cc1 [Example 14, 2-[Trans-(4-aminocyclohexyl)amino]-6-[2-(4-methoxyphenyl)ethylamino]-9-cyclopentylpurine dihydrochloride] | 100 nM | 1.4 | – | – | 2.7 | 1500 nM | 2.3 | 2.4 | – | 1.3 | 2.8 | 3 | –
5 | COCCOCCCNc1nc(N[C@H]2CC[C@H](N)CC2)nc2c1ncn2C1CCCC1 [Example 15, 2-[Trans-(4-aminocyclohexyl)amino]-6-[3-(2-methoxyethoxy)propylamino]-9-cyclopentylpurine dihydrochloride] | 16 nM | – | – | – | 2.1 | 40 nM | 1.4 | 1.6 | 1.9 | 1.8 | – | – | IC50 (PC-3; PC-3, dihydrochloride): 1.2 µM; IC50 (Colo-205; Colo-205, dihydrochloride): 1.7 µM
6 | COCCNc1nc(N[C@H]2CC[C@H](N)CC2)nc2c1ncn2C1CCCC1 [Example 16, 2-[Trans-(4-aminocyclohexyl)amino]-6-(2-methoxyethylamino)-9-cyclopentylpurine dihydrochloride] | 55 nM and 30 nM | – | 9.2 | 6.3 µM | 6.4 | 230 nM and 280 nM | – | – | 4.4 | 4.8 | 2.5 | 4.7 | IC50 (MDA-MB-231; MDA-MB-231, dihydrochloride): 4.1 µM; IC50 (MDA-MB-435; MDA-MB-435, dihydrochloride): 7.6 µM; IC50 (DU145; DU145, dihydrochloride): 3.3 µM
7 | CCN(CC)CCCNc1nc(N[C@H]2CC[C@H](N)CC2)nc2c1ncn2C1CCCC1 [Example 18, 2-[Trans-(4-aminocyclohexyl)amino]-6-[(3-diethylamino)propylamino]-9-cyclopentylpurine dihydrochloride] | 1000 nM | – | – | – | – | 1400 nM | – | – | – | – | – | – | –
8 | COc1cccc(CNc2nc(N[C@H]3CC[C@H](N)CC3)nc3c2ncn3C(C)C)c1OC [Example 30, 2-[Trans-(4-aminocyclohexyl)amino]-6-[(2.3-dimethoxybenzyl)amino]-9-(2-propyl)purine dihydrochloride] | 1400 nM | – | – | – | – | 2400 nM | – | – | – | – | – | – | –
